Assay results taken from patent US4749702A, “Antidepressive substituted N-[(4-piperidinyl)alkyl] bicyclic condensed oxazol- and thiazolamines” (Janssen Pharmaceutica N. V., priority 1987, dated 1988).

These compounds were tested on Loss in righting reflex induced by xylazine (assay: Loss of righting reflex test (xylazine antagonism)). Conditions: female Wistar rats 220-270 g; test compound 60 min before observation; xylazine 20 mg/kg i.p. 30 min later; route of test compound not given.
Assay type: in vivo, Female Wistar strain rats
Method: Loss of righting reflex test Female Wistar strain rats weighing 220-270 g were used throughout the test. Sixty minutes before observations were made, the rats were treated with a test compound or with a saline solution. Thirty minutes later, all animals received an intraperitoneal injection of 20 mg/kg body weight of xylazine. […] The degree of which the righting reflex was compromised, was scored 0-3 depending on the animal's response to it being put gently on its back on a flat surface. Score 3: complete loss of righting reflexes; score 2: some righting movements occur, but these fail to result in a 180° turn of the body; score 1: righting movements do result in a 180° turn of the body, but the process takes noticeably more time than it does in normal animals; score 0: righting is effected with a speed similar to that of normal rats.

| SMILES | Loss in righting reflex induced by xylazine ED50-values (dose producing loss of righting reflex scores <3 in 50% of the tested animals) |
| --- | --- |
| c1ccc2c(c1)OC[C@H](CN1CCC(CNc3nc4cccnc4s3)CC1)O2 [Compound 13, (-)-(S)-N-[[1[(2,3-dihydro-1,4-benzodioxin-2-yl)methyl]-4-piperidinyl]methyl]thiazolo[5,4-b]pyridin-2-amine] | 0.08 mg/kg |
| Fc1cccc2sc(NCC3CCN(CC4COc5ccccc5O4)CC3)nc12 (stereo not drawn) [Compound 20, N-[[1-[(2,3-dihydro-1,4-benzodioxin-2-yl)methyl]-4-piperidinyl]methyl]-4-fluoro-2-benzothiazolamine] | 0.066 mg/kg |
| Cc1ccc2nc(NCC3CCN(CC4COc5ccccc5O4)CC3)sc2c1 (stereo not drawn) [Compound 21, N-[[1-[(2,3-dihydro-1,4-benzodioxin-2-yl)methyl]-4-piperidinyl]methyl]-6-methyl-2-benzothiazolamine] | 0.14 mg/kg |
| Cl.Cl.c1ccc2c(c1)OCC(CN1CCC(CNc3nc4ccccc4o3)CC1)O2 (stereo not drawn) [Compound 42, N-[[1-[(2,3-dihydro-1,4-benzodioxin-2-yl)methyl]-4-piperidinyl]methyl]-2-benzoxazolamine dihydrochloride] | 0.31 mg/kg |
| c1ccc2c(c1)OCC(CN1CCC(CCNc3nc4ccccc4s3)CC1)O2 (stereo not drawn) [Compound 30, N-[2-[1[(2,3-dihydro-1,4-benzodioxin-2-yl)methyl]-4-piperidinyl]ethyl]-2-benzothiazolamine] | 0.31 mg/kg |
| Fc1ccc2nc(NCC3CCN(CC4COc5ccccc5O4)CC3)sc2c1 (stereo not drawn) [Compound 19, N-[[1-[(2,3-dihydro-1,4-benzodioxin-2-yl)methyl]-4-piperidinyl]methyl]-6-fluoro-2-benzothiazolamine] | 0.31 mg/kg |
| c1ccc2c(c1)OCC(CN1CCC(CNc3nc4cccnc4s3)CC1)O2 (stereo not drawn) [Compound 8, N-[[1-[(2,3-dihydro-1,4-benzodioxin-2-yl)methyl]-4-piperidinyl]methyl]thiazolo[5,4-b]pyridin-2-amine] | 0.08 mg/kg |
| c1ccc2c(c1)OCC(CN1CCC(CNc3nc4cc5c(cc4s3)OCO5)CC1)O2 (stereo not drawn) [Compound 28, N-[[1-[(2,3-dihydro-1,4-benzodioxin-2-yl)methyl]-4-piperidinyl]methyl]-1,3-dioxolo[4,5-f]benzothiazol-6-amine] | 0.31 mg/kg |
| COc1cc2nc(NCC3CCN(CC4COc5ccccc5O4)CC3)sc2cc1OC (stereo not drawn) [Compound 27, N-[[1-[(2,3-dihydro-1,4-benzodioxin-2-yl)methyl]-4-piperidinyl]methyl]-5,6-dimethoxy-2-benzothiazolamine] | 0.16 mg/kg |
| COc1cc(OC)c2sc(NCC3CCN(C[C@H]4COc5ccccc5O4)CC3)nc2c1 [Compound 34] | 0.31 mg/kg |
| COc1ccc2nc(NCC3CCN(CC4COc5ccccc5O4)CC3)sc2c1 (stereo not drawn) [Compound 68, N-[[1-[(2,3-dihydro-1,4-benzodioxin-2-yl)methyl]-4-piperidinyl]methyl]-6-methoxy-2-benzothiazolamine] | 0.16 mg/kg |
| COc1cc2nc(NCC3CCN(CC4COc5ccccc5O4)CC3)sc2c(OC)c1OC (stereo not drawn) [Compound 26, N-[[1-[(2,3-dihydro-1,4-benzodioxin-2-yl)methyl]-4-piperidinyl]methyl]-5,6,7-trimethoxy-2-benzothiazolamine (E)-2-butenedioate(2:3)] | 0.08 mg/kg |
| COc1cc2nc(NCC3CCN(CC4CCc5ccccc5O4)CC3)sc2cc1OC (stereo not drawn) [Compound 35] | 0.31 mg/kg |
| c1ccc2c(c1)OCC(CN1CCC(CNc3nc4cnccc4s3)CC1)O2 (stereo not drawn) [Compound 58, N-[[1-[(2,3-dihydro-1,4-benzodioxin-2-yl)methyl]-4-piperidinyl]methyl]thiazolo[4,5-c]pyridin-2-amine] | 0.080 mg/kg |
| Cl.Cl.Oc1ccc2nc(NCC3CCN(CC4COc5ccccc5O4)CC3)sc2c1 (stereo not drawn) [Compound 57, 2-[[[1-[(2,3-dihydro-1,4-benzodioxin-2-yl)methyl]-4-piperidinyl]methyl]amino]-6-benzothiazolol dihydrochloride] | 0.31 mg/kg |
